What was measured:
Type in all cases: functional, cell-based
[1] = target: T1, Cannabinoid receptor 2 (Homo sapiens, UniProt P34972); experiment: Partial agonist activity at wild type CB2 receptor (unknown origin) stably expressed in HEK293T assessed as decrease in forskolin induced cAMP level preincubated for 15 mins followed by forskolin addition incubated for 15 mins by HTRF assay
[2] = target: T1, Cannabinoid receptor 2; experiment: Partial agonist activity at wild type CB2 receptor (unknown origin) stably expressed in HEK293T assessed as decrease in forskolin induced cAMP level preincubated for 15 mins followed by forskolin addition incubated for 15 mins by HTRF assay relative to control; settings: filed as partial agonist, time 30.0 min
[3] = target: T1, Cannabinoid receptor 2; experiment: Partial agonist activity at wild type CB2 receptor (unknown origin) stably expressed in HEK293T assessed as decrease in forskolin induced cAMP level preincubated for 15 mins followed by forskolin addition incubated for 15 mins in presence of cannabidiol by HTRF assay relative to control; settings: filed as partial agonist, time 30.0 min
[4] = system: Cannabinoid receptor 2 (Homo sapiens), P34972 [V113M]; experiment: Partial agonist activity at CBR2 V1133.32M mutant (unknown origin) stably expressed in HEK293T assessed as decrease in forskolin induced cAMP level preincubated for 15 mins followed by forskolin addition incubated for 15 mins in presence of cannabidiol by HTRF assay relative to control; settings: filed as partial agonist, time 30.0 min
Sequence of Cannabinoid receptor 2 (Homo sapiens), P34972 [V113M] (P34972 whole entry V113M): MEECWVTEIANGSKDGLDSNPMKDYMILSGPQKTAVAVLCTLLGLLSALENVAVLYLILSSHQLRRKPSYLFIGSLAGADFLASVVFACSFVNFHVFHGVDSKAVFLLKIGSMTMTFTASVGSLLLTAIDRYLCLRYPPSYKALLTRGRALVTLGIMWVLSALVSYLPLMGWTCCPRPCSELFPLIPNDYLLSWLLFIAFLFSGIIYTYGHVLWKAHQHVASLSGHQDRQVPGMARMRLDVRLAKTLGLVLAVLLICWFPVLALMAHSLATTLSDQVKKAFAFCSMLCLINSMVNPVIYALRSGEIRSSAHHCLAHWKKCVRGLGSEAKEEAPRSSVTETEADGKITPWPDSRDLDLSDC

[5] = target: T2, Cannabinoid receptor 2 (Homo sapiens, UniProt P34972, V36M); experiment: Partial agonist activity at CBR2 V361.35M mutant (unknown origin) stably expressed in HEK293T assessed as decrease in forskolin induced cAMP level preincubated for 15 mins followed by forskolin addition incubated for 15 mins by HTRF assay
T2 sequence (P34972 whole entry V36M): as the sequence (P34972 whole entry V113M) above, with V36M, M113V counted along it

[6] = target: T3, Cannabinoid receptor 2 (Homo sapiens, UniProt P34972, A282M); experiment: Partial agonist activity at CBR2 A2827.36M mutant (unknown origin) stably expressed in HEK293T assessed as decrease in forskolin induced cAMP level preincubated for 15 mins followed by forskolin addition incubated for 15 mins by HTRF assay
T3 sequence (P34972 whole entry A282M): as the sequence (P34972 whole entry V113M) above, with M113V, A282M counted along it

[7] = system: Cannabinoid receptor 2 (Homo sapiens), P34972 [A282M]; experiment: Partial agonist activity at CBR2 A2827.36M mutant (unknown origin) stably expressed in HEK293T assessed as decrease in forskolin induced cAMP level preincubated for 15 mins followed by forskolin addition incubated for 15 mins by HTRF assay relative to control; settings: filed as partial agonist, time 30.0 min
Sequence of Cannabinoid receptor 2 (Homo sapiens), P34972 [A282M] (P34972 whole entry A282M): as the sequence (P34972 whole entry V113M) above, with M113V, A282M counted along it

[8] = system: Cannabinoid receptor 2 (Homo sapiens), P34972 [A282M]; experiment: Partial agonist activity at CBR2 A2827.36M mutant (unknown origin) stably expressed in HEK293T assessed as decrease in forskolin induced cAMP level preincubated for 15 mins followed by forskolin addition incubated for 15 mins in presence of cannabidiol by HTRF assay relative to control; settings: filed as partial agonist, time 30.0 min
[9] = target: T4, Cannabinoid receptor 2 (Homo sapiens, UniProt P34972, S285L); experiment: Partial agonist activity at CBR2 S2857.39L mutant (unknown origin) stably expressed in HEK293T assessed as decrease in forskolin induced cAMP level preincubated for 15 mins followed by forskolin addition incubated for 15 mins by HTRF assay
T4 sequence (P34972 whole entry S285L): as the sequence (P34972 whole entry V113M) above, with M113V, S285L counted along it

[10] = target: T1, Cannabinoid receptor 2; experiment: Partial agonist activity at wild type CB2 receptor (unknown origin) expressed in HEK293T assessed as increase in ERK1/2 phosphorylation incubated for 7 mins by AlphaScreenSureFire method
[11] = target: T1, Cannabinoid receptor 2; experiment: Partial agonist activity at wild type CB2 receptor (unknown origin) expressed in HEK293T assessed as increase in ERK1/2 phosphorylation incubated for 7 mins by AlphaScreenSureFire method relative to control; settings: filed as partial agonist
[12] = system: Cannabinoid receptor 2 (Homo sapiens), P34972 [V113M]; experiment: Partial agonist activity at CBR2 V1133.32M mutant (unknown origin) expressed in HEK293T assessed as increase in ERK1/2 phosphorylation incubated for 7 mins in presence of cannabidiol by AlphaScreenSureFire method relative to control; settings: filed as partial agonist
[13] = target: T2, Cannabinoid receptor 2; experiment: Partial agonist activity at CBR2 V361.35M mutant (unknown origin) expressed in HEK293T assessed as increase in ERK1/2 phosphorylation incubated for 7 mins in presence of cannabidiol by AlphaScreenSureFire method
[14] = system: Cannabinoid receptor 2 (Homo sapiens), P34972 [V36M]; experiment: Partial agonist activity at CBR2 V361.35M mutant (unknown origin) expressed in HEK293T assessed as increase in ERK1/2 phosphorylation incubated for 7 mins in presence of cannabidiol by AlphaScreenSureFire method relative to control; settings: filed as partial agonist
Sequence of Cannabinoid receptor 2 (Homo sapiens), P34972 [V36M] (P34972 whole entry V36M): as the sequence (P34972 whole entry V113M) above, with V36M, M113V counted along it

[15] = target: T3, Cannabinoid receptor 2; experiment: Partial agonist activity at CBR2 A2827.36M mutant (unknown origin) expressed in HEK293T assessed as increase in ERK1/2 phosphorylation incubated for 7 mins by AlphaScreenSureFire method
[16] = target: T3, Cannabinoid receptor 2; experiment: Partial agonist activity at CBR2 A2827.36M mutant (unknown origin) expressed in HEK293T assessed as increase in ERK1/2 phosphorylation incubated for 7 mins in presence of cannabidiol by AlphaScreenSureFire method
[17] = target: T1, Cannabinoid receptor 2; experiment: Positive allosteric modulation of JWH-133-induced agonist activity at wild type CB2 receptor (unknown origin) stably expressed in HEK293T cells assessed as inhibition of forskolin-stimulated cAMP levels preincubated for 15 mins followed by forskolin addition incubated for 15 mins by HTRF assay relative to control; settings: filed as positive allosteric modulator, time 30.0 min
[18] = system: Cannabinoid receptor 2 (Homo sapiens), P34972 [A282M]; experiment: Partial agonist activity at CBR2 A2827.36M mutant (unknown origin) expressed in HEK293T assessed as increase in ERK1/2 phosphorylation incubated for 7 mins by AlphaScreenSureFire method relative to control; settings: filed as partial agonist
[19] = target: T4, Cannabinoid receptor 2; experiment: Partial agonist activity at CBR2 S2857.39L mutant (unknown origin) expressed in HEK293T assessed as increase in ERK1/2 phosphorylation incubated for 7 mins by AlphaScreenSureFire method
[20] = system: Cannabinoid receptor 2 (Homo sapiens), P34972 [S285L]; experiment: Partial agonist activity at CBR2 S2857.39L mutant (unknown origin) expressed in HEK293T assessed as increase in ERK1/2 phosphorylation incubated for 7 mins by AlphaScreenSureFire method relative to control; settings: filed as partial agonist
Sequence of Cannabinoid receptor 2 (Homo sapiens), P34972 [S285L] (P34972 whole entry S285L): as the sequence (P34972 whole entry V113M) above, with M113V, S285L counted along it

[21] = target: T1, Cannabinoid receptor 2; experiment: Partial agonist activity at wild type CB2 receptor (unknown origin) expressed in HEK293T assessed as increase in picometer shifts of reflected light wavelengths by DMR assay
[22] = target: T1, Cannabinoid receptor 2; experiment: Partial agonist activity at wild type CB2 receptor (unknown origin) expressed in HEK293T assessed as increase in picometer shifts of reflected light wavelengths in presence of cannabidiol by DMR assay
[23] = target: T1, Cannabinoid receptor 2; experiment: Partial agonist activity at wild type CB2 receptor (unknown origin) expressed in HEK293T assessed as increase in picometer shifts of reflected light wavelengths by DMR assay relative to control; settings: filed as partial agonist
[24] = system: Cannabinoid receptor 2 (Homo sapiens), P34972 [V113M]; experiment: Partial agonist activity at CBR2 V1133.32M mutant (unknown origin) expressed in HEK293T assessed as increase in picometer shifts of reflected light wavelengths in presence of cannabidiol by DMR assay relative to control; settings: filed as partial agonist
[25] = target: T2, Cannabinoid receptor 2; experiment: Partial agonist activity at CBR2 V361.35M mutant (unknown origin) expressed in HEK293T assessed as increase in picometer shifts of reflected light wavelengths in presence of cannabidiol by DMR assay
[26] = system: Cannabinoid receptor 2 (Homo sapiens), P34972 [S285L]; experiment: Partial agonist activity at CBR2 S2857.39L mutant (unknown origin) expressed in HEK293T assessed as increase in picometer shifts of reflected light wavelengths by DMR assay relative to control; settings: filed as partial agonist
[27] = system: Cannabinoid receptor 2 (Homo sapiens), P34972 [S285L]; experiment: Partial agonist activity at CBR2 S2857.39L mutant (unknown origin) expressed in HEK293T assessed as increase in picometer shifts of reflected light wavelengths in presence of cannabidiol by DMR assay relative to control; settings: filed as partial agonist

T1 sequence (P34972 whole entry): as the sequence (P34972 whole entry V113M) above, with M113V counted along it

## CCCC(C)(C)c1cc(O)c2c(c1)OC(C)(C)[C@@H]1CC=C(C)C[C@@H]21
[1]
  EC50: 31.6 nM
[2]
  Emax: 46%
[3]
  Emax: 57.8%
[4]
  Emax: 77.8%
[5]
  EC50: 12.6 nM
[6]
  EC50: 12.6 nM
[7]
  Emax: 45.4%
[8]
  Emax: 48.8%
[9]
  EC50: 39.8 nM
[10]
  EC50: 7.94 nM
[11]
  Emax: 322%
[12]
  Emax: 216%
[13]
  EC50: 39.8 nM
[14]
  Emax: 353%
[15]
  EC50: 20 nM
[16]
  EC50: 12.6 nM
[17]
  Emax: 56%
[18]
  Emax: 376%
[19]
  EC50: 39.8 nM
[20]
  Emax: 374%
[21]
  EC50: 631 nM
[22]
  EC50: 631 nM
[23]
  Emax: 183%
[24]
  Emax: 71.9%
[25]
  EC50: 631 nM
[26]
  Emax: 223%
[27]
  Emax: 165%
